{
  "source": "paper PMC5063977",
  "about": "(The Journal of Biological Chemistry, 2016)",
  "key": {"[1]": {"molecular_target": "T1, RAMP2-CLR (AM1 receptor) (Homo sapiens, UniProt O60895+Q16602)", "T1 construct": "FLAG; expressed in transfected cells; host or cells: HEK-293 or HEK-293S cells, transient transfection, 1:1 RAMP:CLR", "T1 sequence (Q16602 23-461)": "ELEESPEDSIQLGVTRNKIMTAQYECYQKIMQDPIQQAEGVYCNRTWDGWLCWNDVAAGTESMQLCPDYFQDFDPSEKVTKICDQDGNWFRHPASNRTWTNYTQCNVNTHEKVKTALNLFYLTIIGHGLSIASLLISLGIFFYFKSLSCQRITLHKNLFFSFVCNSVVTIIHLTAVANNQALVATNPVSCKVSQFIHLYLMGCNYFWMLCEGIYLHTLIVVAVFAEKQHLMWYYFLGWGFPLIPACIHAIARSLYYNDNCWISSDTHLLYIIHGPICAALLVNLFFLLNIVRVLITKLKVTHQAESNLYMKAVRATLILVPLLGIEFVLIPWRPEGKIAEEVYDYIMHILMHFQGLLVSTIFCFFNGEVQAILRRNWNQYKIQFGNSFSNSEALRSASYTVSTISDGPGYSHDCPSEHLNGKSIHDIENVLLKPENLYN", "T1 sequence (O60895 43-175)": "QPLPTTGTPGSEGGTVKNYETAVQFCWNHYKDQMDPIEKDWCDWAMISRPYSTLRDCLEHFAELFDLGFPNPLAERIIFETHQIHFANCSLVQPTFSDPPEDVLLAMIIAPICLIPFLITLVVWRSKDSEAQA", "assay": "cAMP accumulation, HEK-293 cells, RAMP2 + CLR", "type": "cell-based", "settings": "mean ± S.E.", "experimental": "HEK-293 cells were transfected with FuGENE 6 (Roche Applied Science) in accordance with the manufacturer's instructions using a 1:3 (w:v) DNA:FuGENE ratio and a 1:1 ratio of RAMP to CLR. […] The transfected cell lines were grown for 24–48 h prior to assaying.\nThe transfected HEK-293 cells were washed in PBS, resuspended in stimulation buffer (PBS containing 0.1% BSA and 0.5 mM IBMX), and seeded at 2000 cells/well in 384-well white Optiplates. Ligands were added in the range of 1 pM to 1 mM, and cAMP accumulation was measured after 30 min of stimulation using a LANCE® cAMP detection kit (PerkinElmer Life Sciences). […] Plates were read using a Mithras LB 940 multimode microplate reader (Berthold Technologies). […] Values were converted to concentration using a cAMP standard curve performed in parallel.\nData analysis for cAMP assays was performed in GraphPad Prism 6.0f (San Diego, CA). Data were fitted to obtain concentration-response curves using either the three-parameter logistic equation (for pEC50 values) or the operational model for partial agonism ([34]) to obtain values of efficacy (log τ) and the equilibrium dissociation constant (log Ka). These values were then used to quantify signaling bias as change in log (τ/Ka) relative to the natural cognate ligand for the respective receptor ([41]). […] Statistical differences were analyzed using one-way ANOVA or Student's t test as appropriate with post hoc Bonferroni's or Dunnett's multiple comparisons, and p < 0.05 was considered significant. […] For RT-PCR, normalization to the internal standard GAPDH was performed to reduce variance and enable a comparison between different cell lines. To quantitate the ligand-dependent response in the yeast system, a strain lacking GPA1 (MMY11), grown in rich medium, was used as a standard ([72]). As GPA1 is not present in this strain, the Gβγ subunits are unregulated and free to signal, allowing us to determine the maximal response of our system. […] For the mammalian cell-based assays, data analysis was carried out as for the yeast curves. […]"}, "[2]": {"molecular_target": "T2, RAMP1-CLR (CGRP receptor) (Homo sapiens, UniProt O60894+Q16602)", "T2 construct": "FLAG; expressed in transfected cells; host or cells: HEK-293 or HEK-293S cells, transient transfection, 1:1 RAMP:CLR", "T2 sequence (Q16602 23-461)": "as the sequence (Q16602 23-461) above", "T2 sequence (O60894 27-148)": "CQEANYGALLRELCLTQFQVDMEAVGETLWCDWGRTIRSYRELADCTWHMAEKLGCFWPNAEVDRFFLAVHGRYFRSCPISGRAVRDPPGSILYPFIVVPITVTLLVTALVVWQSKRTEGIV", "assay": "S. cerevisiae growth assay, GPA1/Gαq chimera, RAMP1 + CLR", "type": "cell-based", "settings": "percentage of yeast strain MMY11 (lacking GPA1); 24-h; mean ± S.E., n = 7", "experimental": "FIGURE 7. […] Reporter gene activity was determined following 24-h stimulation. All data are expressed as percentage of the maximum response observed in yeast strain MMY11 and are means ± S.E. of n individual data sets. D, Bar chart showing the efficacy of each ligand for each RAMP-CLR combination at the Gαq chimera determined via application of the operational model of receptor agonism (Ref. [34] and Table 1). Data were determined as statistically different from the cognate ligand for each receptor (***, p < 0.001; ****, p < 0.0001) using one-way ANOVA with Bonferroni's post-test. E, signaling bias plots were calculated as ΔΔ(τ/Ka) values on a logarithmic scale for each ligand and for each chimera G protein for the three individual RAMP-CLR complexes.\nGeneral yeast procedures were performed as described previously ([22], [24]). […] Receptor signaling was measured using the yeast growth assay as described previously ([24]). […] A fluorescein signal was detected as an increase in fluorescence (excitation wavelength = 485 nm, emission wavelength = 535 nm) as a measure of growth. Different concentrations of ligand (0.01 nM–100 μM) were assayed using 96-well plates, and fluorescence was detected using a Tecan Infinite M200 microplate reader (Tecan Ultra Evolution, Reading, UK) or a Mithras LB 940 microplate reader (Berthold Technologies, Harpenden, UK) for 20 h. […]"}},
  "data": [
    {"smiles": "CSCC[C@H](NC(=O)[C@H](CC(C)C)NC(=O)[C@H](CCC(N)=O)NC(=O)[C@H](Cc1c[nH]c2ccccc12)NC(=O)[C@H](CC(C)C)NC(=O)[C@H](CCCNC(=N)N)NC(=O)[C@H](Cc1c[nH]cn1)NC(=O)[C@H](CO)NC(=O)[C@H](CC(C)C)NC(=O)[C@H](CC(N)=O)NC(=O)[C@H](CCC(N)=O)NC(=O)[C@@H](NC(=O)[C@H](CCC(N)=O)NC(=O)[C@@H]1CSSC[C@H](NC(=O)CNC(=O)[C@@H](NC(=O)[C@H](CCCNC(=N)N)NC(=O)[C@H](CC(C)C)NC(=O)[C@H](CC(C)C)NC(=O)[C@H](CCC(N)=O)NC(=O)[C@H](C)NC(=O)[C@H](CCC(N)=O)NC(=O)[C@@H](N)[C@@H](C)O)C(C)C)C(=O)N[C@@H](C(C)C)C(=O)N[C@@H](CC(C)C)C(=O)NCC(=O)N[C@@H]([C@@H](C)O)C(=O)N1)C(C)C)C(=O)NCC(=O)N1CCC[C@H]1C(=O)N[C@@H](C)C(=O)NCC(=O)N[C@@H](CCCNC(=N)N)C(=O)N[C@@H](CCC(N)=O)C(=O)N[C@@H](CC(=O)O)C(=O)N[C@@H](CO)C(=O)N[C@@H](C)C(=O)N1CCC[C@H]1C(=O)N[C@H](C(=O)N[C@@H](CC(=O)O)C(=O)N1CCC[C@H]1C(=O)N[C@@H](CO)C(=O)N[C@@H](CO)C(=O)N1CCC[C@H]1C(=O)N[C@@H](Cc1c[nH]cn1)C(=O)N[C@@H](CO)C(=O)N[C@@H](Cc1ccc(O)cc1)C(N)=O)C(C)C", "note": "[AM2, adrenomedullin 2]", "values": [
      {"measurement": "Emax", "setting": "[1]; HEK293, PTX treated (200 ng/ml, 16 h), percentage of maximal cAMP with 100 μM forskolin in presence of PTX, n = 6 (Table 3)", "value": "56 ± 2.2", "unit": "%"},
      {"measurement": "Emax", "setting": "[1]; HEK293, percentage of maximal cAMP with 100 μM forskolin, HEK-293, 30 min, n = 8 (Table 2)", "value": "34.1 ± 4", "unit": "%"},
      {"measurement": "Emax", "setting": "[1]; HEK293, untreated, percentage of maximal cAMP with 100 μM forskolin in presence of PTX, n = 9 (Table 3)", "value": "36.6 ± 3.5", "unit": "%"}
    ]},
    {"smiles": "CC[C@H](C)[C@H](NC(=O)[C@H](CCC(N)=O)NC(=O)[C@H](Cc1c[nH]cn1)NC(=O)[C@H](C)NC(=O)[C@H](CC(C)C)NC(=O)[C@H](CCCCN)NC(=O)[C@H](CCC(N)=O)NC(=O)[C@@H](NC(=O)[C@@H](NC(=O)[C@@H]1CSSC[C@H](NC(=O)CNC(=O)[C@H](Cc2ccccc2)NC(=O)[C@H](CO)NC(=O)[C@H](CCCNC(=N)N)NC(=O)[C@H](CC(C)C)NC(=O)CNC(=O)[C@H](CCC(N)=O)NC(=O)[C@H](Cc2ccccc2)NC(=O)[C@H](CC(N)=O)NC(=O)[C@H](CC(N)=O)NC(=O)[C@H](CCSC)NC(=O)[C@H](CO)NC(=O)[C@H](CCC(N)=O)NC(=O)[C@H](CCCNC(=N)N)NC(=O)[C@@H](N)Cc2ccc(O)cc2)C(=O)N[C@@H](CCCNC(=N)N)C(=O)N[C@@H](Cc2ccccc2)C(=O)NCC(=O)N[C@@H]([C@@H](C)O)C(=O)N1)[C@@H](C)O)C(C)C)C(=O)N[C@@H](Cc1ccc(O)cc1)C(=O)N[C@@H](CCC(N)=O)C(=O)N[C@@H](Cc1ccccc1)C(=O)N[C@H](C(=O)N[C@@H](CC(=O)O)C(=O)N[C@@H](CCCCN)C(=O)N[C@@H](CC(=O)O)C(=O)N[C@@H](CCCCN)C(=O)N[C@@H](CC(=O)O)C(=O)N[C@@H](CC(N)=O)C(=O)N[C@H](C(=O)N[C@@H](C)C(=O)N1CCC[C@H]1C(=O)N[C@@H](CCCNC(=N)N)C(=O)N[C@@H](CO)C(=O)N[C@@H](CCCCN)C(=O)N[C@H](C(=O)N[C@@H](CO)C(=O)N1CCC[C@H]1C(=O)N[C@@H](CCC(N)=O)C(=O)NCC(=O)N[C@@H](Cc1ccc(O)cc1)C(N)=O)[C@@H](C)CC)C(C)C)[C@@H](C)O", "note": "[AM, adrenomedullin]", "values": [
      {"measurement": "Emax", "setting": "[2]", "value": "14.1 ± 1.2", "unit": "%"}
    ]}
  ]
}
